Holding throughout (assay): NCI tumour cell line growth inhibition, 48 h
Test [1] relates to DMS 114 small cell lung.
Test [2] concerns LXFL 529 NSCLC.
The subject of test [3] is DMS 273 small cell lung.
The subject of test [4] is RXF-631 renal.
In test [5] the test system is KM20L2 colon.
The test system of test [6] is XF 498 CNS.
The test system of test [7] is SNB-78 CNS.
The subject of test [8] is DLD-1 colon.
Test [9] relates to HOP-18 NSCLC.
Test [10] deals with P388 leukemia.
Test [11] relates to SN12K1 renal.
The test system of test [12] is P388/ADR leukemia.

Several values for one entry are separate records, joined by “and”; a condition that tells them apart may be missing. Equal entries are not always repeated.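 Growth conditions: 96-well plates. Treatment: test compound, 48 hours, 5 concentrations. Analysis: linear interpolation between bracketing concentrations; unreached endpoints set to highest concentration. Here, GI50 denotes the concentration required for 50% inhibition of growth. TGI marks complete inhibition of growth.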 Where only a bound is given, the exact number is not on record here.

Regarding `CCCCn1c(-c2ccccc2)cs/c1=N\N=C1C=C(C(C)(C)C)C(=O)C(C(C)(C)C)=C1`, the TGI in test [1], in test [2], in test [3], in test [4], in test [5] and in test [6] was over 100 µM each time.
As for `CC(=O)Nc1ccc(-c2nnc(SCC(=O)Nc3cccc(C)c3)o2)cc1`, the TGI came out at 6.94 µM in [1]; 31.1 µM in test [7]; 23.1 µM in test [8]; 22.8 µM in test [2]; 23 µM in test [3]; 22 µM in test [5]. The same molecule had a TGI in test [9] of 29.7 µM.
In the case of `O=C(NN1C(=O)C(Cl)C1c1cccc(O)c1)c1ccccc1O` (configuration not stated), the TGI in test [1], in test [7], in test [8], in [2], in test [3] and in [9] was over 100 µM each time. In test [6], the TGI is over 100 µM.
Regarding `CC1(CO)C(O)CCC2(C)C1CCC1CC3CC12CCC3(O)CO` (configuration not stated), the TGI is over 100 µM in test [1]; 6.66 µM in test [10]; over 100 µM in [7]; over 100 µM in test [8]; over 100 µM in test [3]; over 100 µM in test [5]. In addition, the TGI in test [9] was over 100 µM; in test [6], over 100 µM; in test [11], over 100 µM; in test [12], 12.6 µM.
With `c1ccc2c(c1)nnn2CNc1ccc(N2CCCCC2)cc1`, the TGI in [1], in test [7], in test [8], in [2], in test [3] and in test [5] was over 100 µM in each case. Besides, the TGI in test [9] and in [6] was over 100 µM in each case.
Turning to `O=C([CH-]C(=O)c1ccccc1)c1ccccc1.[C-]#[O+].[C-]#[O+].[Ir]`, in test [5], the GI50 was 39.7 µM and the TGI is over 100 µM.
Consider `CCC(=O)OC1CCn2c1nc1c2C(=O)C(C)=C(NC(C)=O)C1=O` (configuration not stated), for which the TGI stood at 1.62 µM in test [1]; 4.35 µM in test [7]; 3.96 µM in test [8]; 2.72 µM in test [2]; 3.37 µM in test [3].
`CCOC(=O)/C=C/n1c2ccccc2c(=O)c2cc(OC)ccc21`: the TGI in [1], in test [8], in [2], in [3], in [4] and in [5] was over 100 µM throughout. The TGI in [9] and in test [6] was over 100 µM in each case.
For `O=c1oc2cc(O)ccc2c2[nH]c3cc(O)ccc3c12`, the TGI in test [1] was 53.8 µM; in [7], over 100 µM; in [8] it was 74.8 µM; in test [2] it was over 100 µM; in test [3], 88.6 µM; in test [5], over 100 µM. The TGI in test [9] is over 100 µM; in test [6] it was 73.6 µM.
Turning to `N#C/C(=C\c1ccc(O)c(O)c1)c1c(C#N)c(N)nn1-c1ccccc1`, the TGI in test [7] is over 100 µM; in test [8], over 100 µM; in test [2], 92.5 µM; in [3], 18.5 µM; in [5] it was over 100 µM; in test [9], 29.1 µM.
As to `Cc1cc(N(CCC#N)S(=O)(=O)c2ccccc2)ccc1C=Nc1cccc(C(=O)O)c1`, the TGI in [1], in [7], in test [2], in test [4], in test [5] and in [9] was over 100 µM each time.
With `COc1ccc(CN(CCN(C)C)c2ccccn2)cc1` (tested in a mixture with another compound), the TGI in test [1], in test [7], in test [8], in [2], in test [5] and in [9] was over 100 µM throughout. The TGI in [6] is over 100 µM.
Take `CC(=O)c1ccc(N2C(=O)C3c4[nH]c5ccccc5c4C4CCC(C(C)(C)C)CC4C3C2=O)cc1` (configuration not stated): the TGI is 59.8 µM in [1]; 74.9 µM in test [7]; over 100 µM in test [8]; over 100 µM in test [2]; 33.3 µM in [3]; 36.4 µM in test [5]. In addition, in test [9], the TGI is over 100 µM.
Regarding `[N-]=[N+]=CC(=O)C1(C(=O)C=[N+]=[N-])CC1`, the TGI in test [1], in [7], in test [2], in [3], in test [5] and in test [9] was over 100 µM each time. Further, the TGI in test [6] is over 100 µM.
Take `CCN(CC)CC1CCCCN1CC(=O)N1c2cc(Cl)ccc2NC(=O)CC1C` (configuration not stated): the TGI in [1], in [7], in test [8], in test [2], in [3] and in test [5] was over 100 µM each time. For the same molecule, the TGI in test [6] was over 100 µM.
With `COC1(OC)CC2C(=O)N(Cc3ccccc3)C1C(S(=O)(=O)c1ccccc1)C2C(C)S(=O)(=O)c1ccccc1` (configuration not stated), the TGI in test [1], in [7], in test [8], in [2], in test [3] and in test [5] was over 100 µM throughout. Also, the TGI in test [9] and in [6] was over 100 µM each time.
With `CC1CC(=O)Nc2ccc(Cl)cc2N1C(=O)CN1CCC(CCCCN(C)C)CC1` (configuration not stated), the TGI in test [1], in [8], in test [2], in test [3], in [4] and in test [5] was over 100 µM each time. This molecule displayed a TGI in test [9] of over 100 µM.
For `Cc1ccc(S(=O)(=O)NC(=O)C2S(=O)(=O)OCCOS2(=O)=O)cc1`, the TGI in test [7], in [8], in test [2], in [3], in [4] and in test [6] was over 100 µM each time.
As for `CCN(CC)CCNc1c2ccccc2nc2cccc([N+](=O)[O-])c12`, the results for the GI50 in test [1], in [7] and in test [4] were 11.7 nM, 23 nM and 10.7 nM, respectively. Further, the TGI was 0.0935 µM and 0.0335 µM in test [1]; 0.13 µM in test [7]; 0.0843 µM in [2]; 0.0787 µM in [3]; 0.0332 µM in [4]; 0.0553 µM in test [5]. For the same molecule, the TGI in test [6] is 0.0569 µM and 0.0196 µM.

(Values after PubChem BioAssay (NCI).)
